# Laboratory results from patent US7148380B2, “Bio-energy muscle relaxants” (priority 2000, dated 2006).
# Legend:
# [1] = system: contraction of bronchial smooth muscle induced by histamine; assay: By-pass-airflow pressure, bronchial smooth muscle contraction induced by histamine; assay type: in vivo, guinea pig
# Experimental: The animals were divided as saline, BDM, and aminophylline groups. Each animal was anesthetized with pentobarbital (30 mg/kg, I.P.), the trachea was intubated and connected to respirator. Tidal volume and frequency of the respirator were adjusted to 6˜10 ml and 60˜70 breath/min. respectively.
# A small hole on chest wall of the animal was made, resulting in pneumothorax to inhibit spontaneous respiration of the animal. A modified device was used for measuring by-pass-airflow pressure of the airway, reflecting alteration in airway resistance, therefore evaluating status of bronchial smooth muscle contraction induced by histamine. The by-pass-airflow pressures were measured before and at 10, 20, 30, 40, 50, and 60 min after administration of histamine (5˜10 μg, I.P.) as control values. […] Changes in by-pass-airflow pressure caused by histamine before and after saline, BDM, or aminophylline were compared.
# A percentage of changes in the airflow pressures before and after administration of the histamine at different time points, defined as the change rate, was calculated according to formula 1 below: Change rate (%)=(PA−PB)/PB×100% (1)
# where PA is the airflow pressure after histamine, PB is the pressure before histamine. Values were expressed as mean±SD, paired or group “t” test was used upon the requirement for the statistical analysis. The results were considered significant when p<0.05.
# [2] = system: drug-induced asthma in guinea pig; assay: Asthmatic latent period / drug-induced asthma in guinea pig (acetylcholine + histamine inhalation); assay type: in vivo
# Experimental: Sensitive animals were chosen by aerosolized inhalation of asthma-inducing agents—a mixed solution of 2% acetylcholine with 0.1% histamine for 15 sec., inducing an asthmatic attack with severe difficulty in respiration and finally resulting in the animal body turned down. The time from beginning of the inhalation to animal turned down was recorded as an index named “turned down time” or asthmatic latent period. Those animals with turned down time less than 120 s. were selected for the study next day. […] Then the latent period was recorded for each of the animals.
# (1) Screening animals: animal was put in a glass container, a mixed solution of 2% acetylcholine and 0.1% histamine was nebulized with a pressure of 400 mmHg and inhaled by the animals for 15 sec. Following the end of the inhalation, the time between beginning of the inhalation and the animal turned down due to bronchial spasm and dyspnea was recorded as asthmatic latent period. Those animals with a latent period beyond 120 s. were excluded, and those with a latent period less than 120 s were selected for study the next day.
# (4) Measuring: Repeat the inhalation at 30 min, 4 h, and 24 h after administration of the drugs respectively. Asthmatic latent period was recorded, 6 minutes were taken as the maximum, and values beyond 6 min were counted as 6 min.
# (5) Data analysis: Values were expressed as mean±sd, and paired for “t” and chi-square tests. Significance was considered to be established when p<0.05.
# [3] = after drug 10 ml/kg I.P., 10 min after histamine
# [4] = after drug 10 ml/kg I.P., 20 min after histamine
# [5] = after drug 10 ml/kg I.P., 30 min after histamine
# [6] = after drug 10 ml/kg I.P., 40 min after histamine
# [7] = after drug 10 ml/kg I.P., 50 min after histamine
# [8] = after drug 10 ml/kg I.P., 60 min after histamine
# [9] = before drug administration, 10 min after histamine
# [10] = before drug administration, 20 min after histamine
# [11] = before drug administration, 30 min after histamine
# [12] = before drug administration, 40 min after histamine
# [13] = before drug administration, 50 min after histamine
# [14] = before drug administration, 60 min after histamine
# [15] = 10 ml/kg I.P. (BDM 0.2M, aminophylline 1.25%), mean±sd
smiles,measurement,setting,value
"Cn1c(=O)c2[nH]cnc2n(C)c1=O [Aminophylline, aminophylline, reference compound]","by-pass-airflow pressure, A, B. Hist","[1]; after drug 10 ml/kg I.P. (BDM 0.2M, aminophylline 1.25%), before histamine",4.24 ± 1.18 Kpa
same,"by-pass-airflow pressure, A, Hist 10 min.",[1]; [3],4.36 ± 1.10 Kpa
same,"changing rate of by-pass-airflow pressure, A, Hist 10 min.",[1]; [3],−7.68%
same,"by-pass-airflow pressure, A, Hist 20 min.",[1]; [4],4.18 ± 0.86 Kpa
same,"changing rate of by-pass-airflow pressure, A, Hist 20 min.",[1]; [4],−10.62%
same,"by-pass-airflow pressure, A, Hist 30 min.",[1]; [5],4.20 ± 0.92 Kpa
same,"changing rate of by-pass-airflow pressure, A, Hist 30 min.",[1]; [5],−10.40%
same,"by-pass-airflow pressure, A, Hist 40 min.",[1]; [6],4.15 ± 0.88 Kpa
same,"changing rate of by-pass-airflow pressure, A, Hist 40 min.",[1]; [6],−11.38%
same,"by-pass-airflow pressure, A, Hist 50 min.",[1]; [7],4.10 ± 0.92 Kpa
same,"changing rate of by-pass-airflow pressure, A, Hist 50 min.",[1]; [7],−12.73%
same,"by-pass-airflow pressure, A, Hist 60 min.",[1]; [8],4.02 ± 0.92 Kpa
same,"changing rate of by-pass-airflow pressure, A, Hist 60 min.",[1]; [8],−14.25%
same,histamine-induced increase in the airflow pressure,"[1]; at 10, 20, 30, 40, 50, and 60 min after administration, p<0.01 or p<0.05",significantly reduce
same,"by-pass-airflow pressure, B, Hist 10 min.",[1]; [9],4.51 ± 0.65 Kpa
same,"changing rate of by-pass-airflow pressure, B, Hist 10 min.",[1]; [9],8.37%
same,"by-pass-airflow pressure, B, Hist 20 min.",[1]; [10],4.34 ± 0.73 Kpa
same,"changing rate of by-pass-airflow pressure, B, Hist 20 min.",[1]; [10],3.93%
same,"by-pass-airflow pressure, B, Hist 30 min.",[1]; [11],4.40 ± 0.79 Kpa
same,"changing rate of by-pass-airflow pressure, B, Hist 30 min.",[1]; [11],5.31%
same,"by-pass-airflow pressure, B, Hist 40 min.",[1]; [12],4.42 ± 0.80 Kpa
same,"changing rate of by-pass-airflow pressure, B, Hist 40 min.",[1]; [12],5.80%
same,"by-pass-airflow pressure, B, Hist 50 min.",[1]; [13],4.42 ± 0.86 Kpa
same,"changing rate of by-pass-airflow pressure, B, Hist 50 min.",[1]; [13],5.63%
same,"by-pass-airflow pressure, B, Hist 60 min.",[1]; [14],4.46 ± 0.87 Kpa
same,"changing rate of by-pass-airflow pressure, B, Hist 60 min.",[1]; [14],6.54%
same,"by-pass-airflow pressure, B, B. Hist","[1]; before drug administration, before histamine",4.18 ± 0.72 Kpa
same,"changing rate of by-pass-airflow pressure, D, Hist 10 min.","[1]; difference A minus B, 10 min after histamine",−16.05%
same,"changing rate of by-pass-airflow pressure, D, Hist 20 min.","[1]; difference A minus B, 20 min after histamine",−14.55%
same,"changing rate of by-pass-airflow pressure, D, Hist 30 min.","[1]; difference A minus B, 30 min after histamine",−15.71%
same,"changing rate of by-pass-airflow pressure, D, Hist 40 min.","[1]; difference A minus B, 40 min after histamine",−17.19%
same,"changing rate of by-pass-airflow pressure, D, Hist 50 min.","[1]; difference A minus B, 50 min after histamine",−18.36%
same,"changing rate of by-pass-airflow pressure, D, Hist 60 min.","[1]; difference A minus B, 60 min after histamine",−20.79%
same,"Asthamatic Latent Period, 30 minutes after administration","[2]; 10 ml/kg I.P. (BDM 0.2M, aminophylline 1.25%), maximum 6 min, mean±sd",298.2 ± 138.2 s
same,"Asthamatic Latent Period, 4 hours after administration",[2]; [15],216.6 ± 112.5 s
same,"Asthamatic Latent Period, 24 hours after administration",[2]; [15],96 ± 26.9 s
same,Incidence of asthmatic spasm,"[2]; 30 min after administration, down from 100%, not significant",40%
same,"Asthamatic Latent Period, before administration","[2]; baseline before drug, 10 ml/kg I.P. (BDM 0.2M, aminophylline 1.25%), mean±sd",70.6 ± 27.7 s
same,Effect on the latent period,"[2]; thirty minutes and 4 h after administration, p<0.05",significantly extended
